From PubChem BioAssay AID1996
In brackets after ≈: the same amount, converted by molar mass.

settings: buffer; pH 7.4; 200.0 µM

| SMILES | solubility kinetic [µg/mL] |
| --- | --- |
| Cc1cc(C)n(-c2cc(C(=O)O)cc(C(=O)O)c2)n1 | > 39 |
| Cc1nc2cc(C)c(C)cc2s1 | 0.7 (≈ 3.95 µM) |
| CCOc1cc([N+](=O)[O-])c2nc(N)sc2c1 | 4.3 (≈ 18 µM) |
| CCNc1cc(N2CCOCC2)nc(SC)n1 | > 38.2 |
| CC(=O)N[C@H]1C(O)O[C@H](CO)[C@@H](O)[C@@H]1O (some centres undefined) | > 33.2 |
| CN(C)C(=S)NC1CCS(=O)(=O)C1 (centres undefined) | > 33.3 |
| O=C(CN1CCCCCC1)Nc1cccc([N+](=O)[O-])c1 | > 41.6 |
| CCOC(=O)C1(CCc2ccccc2)CCN(CC(O)CO)CC1 (centres undefined) | 39.8 (≈ 119 µM) |
| CC1CCC(NC(=O)c2ccc3c(c2)OCO3)CC1 (centres undefined) | 10.4 (≈ 39.8 µM) |
| CC1CN(CCC(=O)Nc2ccccc2F)CC(C)O1 (centres undefined) | > 42.1 |
| CCCNS(=O)(=O)c1cc2c3c(c1)C(C)C(=O)N3CCC2 (centres undefined) | 40.3 (≈ 131 µM) |
| NC(=O)C1CCN(C(=O)/C=C/c2cc(Br)ccc2F)CC1 | 47.7 (≈ 134 µM) |
| CCCCS(=O)(=O)N1CCCC(C(=O)Nc2ccc(Cl)cn2)C1 (centres undefined) | 19.9 (≈ 55.3 µM) |
| Cc1ccc(S(=O)(=O)Nc2ccncc2)c(C)c1.Cl | > 44.8 |
| CC(C)c1ccc(CNc2ncc(Br)cn2)cc1 | 0.4 (≈ 1.31 µM) |
| CCCOc1ccc(Cc2c(O)nc(SC)[nH]c2=O)cc1 | 44.6 (≈ 146 µM) |
| O=[N+]([O-])c1ccc(P(=O)(Cc2ccccc2)c2ccccc2O)cc1 (centres undefined) | 17 (≈ 48.1 µM) |
| O=S(=O)(c1cccc(C(F)(F)F)c1)c1ccc(O)cn1 | 41.1 (≈ 136 µM) |
| CNC(=O)CSc1nccn1Cc1ccc(Cl)cc1 | > 44.4 |
| Cc1cc(C)cc(OCCn2ccnc2)c1 | 29.3 (≈ 135 µM) |
| NC(=O)c1sc2nc3c(cc2c1N)CCC3 | 31.3 (≈ 134 µM) |
| COc1ccc(-c2cn3cccnc3n2)cc1 | > 33.8 |
| CCC(C)NC(=O)C(=O)NCC1CCCN1CC (centres undefined) | 28.8 (≈ 113 µM) |
| O=[N+]([O-])c1ccccc1S(=O)(=O)NC1CC2CCC1C2 (centres undefined) | > 44.5 |
| O=C(CCN1C(=O)C2C3C=CC(C3)C2C1=O)N1CCCCC1 (centres undefined) | > 45.4 |
| Cc1ccc(C(=O)NCCC(=O)N2CCCC2)cc1 | 39 (≈ 150 µM) |
| CC(C)(C)N=C1C([N+](=O)[O-])=CC=C2C1=NC1(CCCCC1)N2O | 45.3 (≈ 142 µM) |

Continued, values first:

| solubility kinetic [µg/mL] | SMILES |
| --- | --- |
| > 51.5 | CC(C)(C)OC(=O)NCCC(=O)N/N=C/c1ccc2nccnc2c1 |
| > 51.4 | COC(=O)[C@H](CCSC)NC(=O)Nc1cc(OC)cc(OC)c1 |
| 3.8 (≈ 11.7 µM) | Cc1ccc(C(=O)Nc2ccc(OCc3ccccc3)cc2)s1 |
| 15.3 (≈ 40.1 µM) | COC(=O)c1cnc(Oc2c(Cl)cc(N)cc2Cl)cc1C(F)(F)F |
| 5.5 (≈ 13.2 µM) | COc1cc(N)c(Cl)cc1C(=O)OCC(=O)N1c2ccccc2NC(=O)C1(C)C |
| 15.2 (≈ 49.2 µM) | Cc1ccc(C(=O)O/N=C(\N)Cc2cccs2)c(Cl)c1 |
| 20.1 (≈ 66.3 µM) | O=C(COC(=O)c1cccs1)NCCCc1ccccc1 |
| 6.2 (≈ 20.1 µM) | NC(=O)CSc1nc2ccccc2nc1SCC(N)=O |
| 27.6 (≈ 67.6 µM) | CC1(c2ccccc2)NC(=O)N(CC(=O)Nc2ccc(N3CCOCC3)cc2)C1=O (centres undefined) |
| 1.8 (≈ 6.31 µM) | Cc1cccc(C)c1OC(=O)Cc1ccccc1[N+](=O)[O-] |
| 43.9 (≈ 141 µM) | CC(O)c1nc2ccccc2n1CCCCOc1ccccc1 (centres undefined) |
| 10.1 (≈ 31.1 µM) | Cc1cc(C)cc(NC(=O)Oc2ccccc2N2CCCCC2)c1 |
| > 63.2 | CC(C)[C@H](NC(=O)c1ccccc1F)C(=O)OCC(=O)Nc1sccc1C(N)=O |
| 2.9 (≈ 7.66 µM) | COc1nc2ccccc2nc1N1CCN(Cc2ccc3c(c2)OCO3)CC1 |
| < 0.7 | COc1cc2c(cc1OC)C(c1ccccc1OC(C)C)CC(=O)N2 (centres undefined) |
| 0.7 (≈ 1.86 µM) | CCOC(=O)/C(C#N)=C/c1c(Oc2cccc(C)c2)nc2ccccn2c1=O |

| solubility kinetic [µg/mL] | SMILES |
| --- | --- |
| 6 (≈ 16.3 µM) | COc1ccc(CCNC(=O)COc2ccc3c(C)cc(=O)oc3c2)cc1 |
| > 50 | COc1ccccc1C(=O)NCC(=O)NNC(=O)c1cccs1 |
| < 0.4 | Cc1ccc(C)c(C(=O)c2ccccc2NC(=O)c2ccccn2)c1 |
| 16.9 (≈ 74.3 µM) | COc1ccc(NC(C)c2ccccc2)cc1 (centres undefined) |
| 40.1 (≈ 126 µM) | COc1ccc(NC(=O)CN2C(=O)NC3(CCCC3)C2=O)cc1 |
| > 52.6 | COc1cc(NC(=O)Nc2cccc(Cl)c2)c(C(=O)O)cc1OC |
| 2 (≈ 5.96 µM) | O=C(Nc1ccccc1C(=O)Nc1ccccn1)c1ccccc1F |
| 1.2 (≈ 3.55 µM) | CCCCOc1cccc(C(=O)Nc2ccccc2N2CCCC2)c1 |
| > 59.3 | COc1ccc(C(=O)OCC(=O)Nc2c(C)n(C)n(-c3ccccc3)c2=O)cc1 |
| 34.3 (≈ 132 µM) | CC12CN3CC(C)(CN(C1)C3c1ccccc1F)C2 (centres undefined) |
| 8.4 (≈ 24.2 µM) | COc1ccc(NC(=O)C2CCCN(S(C)(=O)=O)C2)cc1Cl (centres undefined) |
| 6.5 (≈ 19.2 µM) | CC(=O)NCCC(=O)Nc1nc(-c2ccc3ccccc3c2)cs1 |
| 4.4 (≈ 17 µM) | COc1ccc(-c2nc3ccccn3c2Cl)cc1 |
| 35.6 (≈ 119 µM) | O=C(Cn1cnc2ccccc2c1=O)NCc1cccs1 |
| 36 (≈ 85.2 µM) | Cc1ccc(NC(=O)CN(C)C(=O)COC(=O)c2ccc(NC(=O)CC#N)cc2)cc1 |
| 42.1 (≈ 136 µM) | O=C(O)c1nccnc1C(=O)NCCc1c[nH]c2ccccc12 |
